In US11286268B1, “EIF4E-inhibiting compounds and methods” (EFFECTOR THERAPEUTICS, INC., priority 2019, dated 2022):
Where two headings read alike, the source gives them in different places.

Biological target: recombinant eIF4E (Homo sapiens (Human), UniProt P06730)
Test: Fluorescence polarization competition assay for eIF4E binding potency
In short: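 Competition of test compound against 20 nM EDA-m^7GDP-ATTO-550 for 75 nM recombinant eIF4E, pre-incubated 5 min, in 20 mM Tris pH 7.5, 100 mM NaCl, 1 mM DTT, 0.02% Tween-20, 1% DMSO. Equilibrated 30 min at room temperature, dark; fluorescence polarization read. IC50 from 8-point, 3-fold dilution series.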

[1] = fluorescence polarization competition, 75 nM recombinant eIF4E, 20 nM EDA-m7GDP-ATTO-550, IC50 class, read-out: elF4E FP
[2] = inhibition of eIF4E/EDA-m7GDP-ATTO-550 binding by 50%, Table 4B calculated values, read-out: IC50

Sequence of recombinant eIF4E (P06730 whole entry): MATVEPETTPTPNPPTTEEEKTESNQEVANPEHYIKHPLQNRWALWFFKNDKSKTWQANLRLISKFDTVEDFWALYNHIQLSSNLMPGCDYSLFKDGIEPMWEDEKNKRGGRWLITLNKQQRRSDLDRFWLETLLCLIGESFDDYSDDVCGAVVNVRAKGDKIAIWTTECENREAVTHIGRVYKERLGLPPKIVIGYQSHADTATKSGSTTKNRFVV

IC50 [1] [nM] | IC50 [2] [nM] | SMILES
< 50 | 30.7 | Cc1nc2cc(S(C)(=O)=O)c(Cl)c(C#N)c2c(=O)n1CCOc1ccc(Cl)cc1-c1ccnc2c(C(=O)O)csc12 [compound 277]
< 50 | 37.5 | Cc1nc2cc(F)c(S(=O)(=O)N(C)C)c(C#N)c2c(=O)n1CCOc1ccc(Cl)cc1-c1ccnc2c(C(=O)O)csc12 [compound 281]
< 50 | 17.1 | Cc1nc2ccc(S(=O)(=O)N3CCC(F)(F)CC3)c(C#N)c2c(=O)n1CCOc1ccc(Cl)cc1-c1ccnc2c(C(=O)O)csc12 [compound 282]
< 50 | 19.6 | Cc1nc2c(C3CCC(F)(F)CC3)ncc(C#N)c2c(=O)n1CCOc1ccc(Cl)cc1-c1ccnc2c(C(=O)O)csc12 [compound 284]
50 to 1000 | 72.5 | Cc1nc2cc(C(F)(F)F)cc(C#N)c2c(=O)n1CCOc1ccncc1-c1ccnc2c(C(=O)O)csc12 [compound 285]
50 to 1000 | 183 | Cc1nc2cc(C#N)cc(C#N)c2c(=O)n1C/C=C/c1ccc(Cl)cc1-c1ccnc2c(C(=O)O)csc12 [compound 286]
< 50 | 47.8 | Cc1nc2cc(C(F)(F)F)cc(C#N)c2c(=O)n1CCOc1ccc(C#N)cc1-c1ccnc2c(C(=O)O)csc12 [compound 287]
< 50 | 46.1 | Cc1nc2c(F)cc(S(=O)(=O)N(C)C)c(C#N)c2c(=O)n1CCOc1ccc(Cl)cc1-c1ccnc2c(C(=O)O)csc12 [compound 288]
50 to 1000 | 63.9 | Cc1nc2c(F)cc(S(C)(=O)=O)c(C#N)c2c(=O)n1CCOc1ccc(Cl)cc1-c1ccnc2c(C(=O)O)csc12 [compound 293]
< 50 | 36.3 | Cc1nc2ccc(S(=O)(=O)c3ccccn3)c(C#N)c2c(=O)n1CCOc1ccc(Cl)cc1-c1ccnc2c(C(=O)O)csc12 [compound 297]
< 50 | 24.3 | Cc1nc2cc(C(F)(F)F)cc(C#N)c2c(=O)n1CCOc1ccc(Cl)cc1-c1coc2c(C(=O)O)cccc12 [compound 300]
50 to 1000 | 57.6 | Cc1nc2cc(C(F)(F)F)cc(C#N)c2c(=O)n1CCOc1ccc(Cl)cc1-c1csc2c(C(=O)O)cccc12 [compound 301]
50 to 1000 | 77.6 | Cc1nc2c(F)cc(C(F)F)c(C#N)c2c(=O)n1CCOc1ccc(Cl)cc1-c1ccnc2c(-c3nnn[nH]3)csc12 [compound 302]
50 to 1000 | 59.4 | Cc1nc2cc(F)c(F)c(C#N)c2c(=O)n1CCOc1ccc(Cl)cc1-c1ccnc2c(C(=O)NS(C)(=O)=O)csc12 [compound 307]
50 to 1000 | 97.7 | Cc1c(O)c2cc(C(F)(F)F)cc(C#N)c2c(=O)n1CCOc1ccc(Cl)cc1-c1ccnc2c(C(=O)O)csc12 [compound 310]
50 to 1000 | 55.5 | Cc1nc2cc(F)c(CN(C)C)c(C#N)c2c(=O)n1CCOc1ccc(Cl)cc1-c1ccnc2c(C(=O)O)csc12 [compound 311]
50 to 1000 | 75.6 | Cc1nc2c(C#N)ccc(C#N)c2c(=O)n1CCOc1ccc(Cl)cc1-c1ccnc2c(C(=O)O)csc12 [compound 312]
< 50 | 34.5 | Cc1nc2c(OC(F)(F)F)ccc(C#N)c2c(=O)n1CCOc1ccc(Cl)cc1-c1ccnc2c(C(=O)O)csc12 [compound 313]

Continued, compound first:

SMILES | IC50 [1] [nM] | IC50 [2] [nM]
Cc1nc2cc(S(C)(=O)=O)c(F)c(C#N)c2c(=O)n1CCOc1ccc(Cl)cc1-c1ccnc2c(C(=O)O)csc12 [compound 278] | < 50 | 12.7
Cc1nc2cc(F)c(S(C)(=O)=O)c(C#N)c2c(=O)n1CCOc1ccc(Cl)cc1-c1ccnc2c(C(=O)O)csc12 [compound 279] | < 50 | 17.8
Cc1nc2cc(S(=O)(=O)N(C)C)c(F)c(C#N)c2c(=O)n1CCOc1ccc(Cl)cc1-c1ccnc2c(C(=O)O)csc12 [compound 280] | < 50 | 41.2
Cc1nc2ccc(S(=O)(=O)N(C)Cc3ccccc3)c(C#N)c2c(=O)n1CCOc1ccc(Cl)cc1-c1ccnc2c(C(=O)O)csc12 [compound 283] | < 50 | 40.6
Cc1nc2cc(C(F)(F)F)cc(C#N)c2c(=O)n1CCOc1cc(F)c(C#N)cc1-c1ccnc2c(C(=O)O)csc12 [compound 289] | < 50 | 19.1
Cc1nc2cc(Cl)c(Cl)c(C#N)c2c(=O)n1CCOc1ccc(C#N)cc1-c1ccnc2c(C(=O)O)csc12 [compound 290] | < 50 | 42.7
Cc1nc2cc(C(F)(F)F)cc(C#N)c2c(=O)n1CCOc1cnc(C#N)cc1-c1ccnc2c(C(=O)O)csc12 [compound 291] | 50 to 1000 | 99.5
Cc1nc2cc(C(F)(F)F)cc(C#N)c2c(=O)n1CCOc1ccc(C#N)nc1-c1ccnc2c(C(=O)O)csc12 [compound 292] | 50 to 1000 | 203
Cc1nc2c(F)c(C(F)(F)F)cc(C#N)c2c(=O)n1CCOc1ccc(Cl)cc1-c1ccnc2c(C(=O)O)csc12 [compound 294] | < 50 | 22.9
Cc1nc2cc(C(F)(F)F)cc(C#N)c2c(=O)n1CCOc1ccc(Cl)cc1-c1ccnc2c(C(F)(F)C(=O)O)csc12 [compound 295] | 50 to 1000 | 167
Cc1nc2c(F)c(F)c(C(F)F)c(C#N)c2c(=O)n1CCOc1ccc(Cl)cc1-c1ccnc2c(C(=O)O)csc12 [compound 298] | 50 to 1000 | 101
Cc1nc2cc(C(F)(F)F)cc(C#N)c2c(=O)n1CCOc1ccc(Cl)cc1-c1csc2c(C(=O)O)ccnc12 [compound 299] | < 50 | 22.3
CONC(=O)c1csc2c(-c3cc(Cl)ccc3OCCn3c(C)nc4c(F)cc(C(F)F)c(C#N)c4c3=O)ccnc12 [compound 303] | 50 to 1000 | –
Cc1nc2cc(C(F)(F)F)cc(Br)c2c(=O)n1CCOc1ccc(Cl)cc1-c1cccc(C(=O)O)c1 [compound 304] | > 1000 | 1600
Cc1nc2cc(C(F)(F)F)cc(Br)c2c(=O)n1CCOc1ccc(Cl)cc1-c1ccnc2c(C(=O)O)csc12 [compound 305] | 50 to 1000 | 431
Cc1nc2cc(F)c(F)c(C#N)c2c(=O)n1CCOc1ccc(Cl)cc1-c1ccnc2c(-c3nnn[nH]3)csc12 [compound 306] | 50 to 1000 | 91.2
CONC(=O)c1csc2c(-c3cc(Cl)ccc3OCCn3c(C)nc4cc(F)c(F)c(C#N)c4c3=O)ccnc12 [compound 308] | 50 to 1000 | 811
COc1c(C)n(CCOc2ccc(Cl)cc2-c2ccnc3c(C(=O)O)csc23)c(=O)c2c(C#N)cc(C(F)(F)F)cc12 [compound 309] | 50 to 1000 | 52.5
Cc1nc2cc(C(F)(F)F)cc(C#N)c2c(=O)n1CCOc1ccc(Cl)cc1-c1cnnc2c(C(=O)O)csc12 [compound 314] | < 50 | 42.8
Cc1nc2cc(C(F)(F)F)cc(C#N)c2c(=O)n1CCOc1ccc(Cl)cc1-c1nsc2c(C(=O)O)csc12 [compound 315] | 50 to 1000 | 582
Cc1nc2ccc(C(N)=O)c(C#N)c2c(=O)n1CCOc1ccc(Cl)cc1-c1ccnc2c(C(=O)O)csc12 [compound 316] | < 50 | 20.4
Cc1nc2cc(C(N)=O)cc(C#N)c2c(=O)n1CCOc1ccc(Cl)cc1-c1ccnc2c(C(=O)O)csc12 [compound 317] | < 50 | 17.1
